Assays:
Assay in all cases: normalised response (% of control), CellTiter-Glo; higher = more viable cells (100 = DMSO, 0 = benzethonium chloride kill control)
Settings in all cases: incubation time: 72 h
BT-474 = system: BT-474
Procedure: (§1)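 DSRT, 72 h incubation, CellTox Green / CellTiter-Glo readout. Signal is normalised to DMSO and benzethonium chloride controls. Value is the normalised response at the highest dose.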

BT-549 = system: BT-549
Procedure: as §1

CAL-120 = system: CAL-120
Procedure: as §1

CAL-148 = system: CAL-148
Procedure: as §1

CAL-51 = system: CAL-51
Procedure: as §1

CAL-85-1 = system: CAL-85-1
Procedure: as §1

DU-4475 = system: DU-4475
Procedure: as §1

HCC1143 = system: HCC1143
Procedure: as §1

HCC1599 = system: HCC1599
Procedure: as §1

HCC1937 = system: HCC1937
Procedure: as §1

HDQ-P1 = system: HDQ-P1
Procedure: as §1

Hs578T = system: Hs578T
Procedure: as §1

MCF-10A = system: MCF-10A
Procedure: as §1

MDA-MB-231 = system: MDA-MB-231
Procedure: as §1

MDA-MB-436 = system: MDA-MB-436
Procedure: as §1

MDA-MB-453 = system: MDA-MB-453
Procedure: as §1

MDA-MB-468 = system: MDA-MB-468
Procedure: as §1

MFM-223 = system: MFM-223
Procedure: as §1

SK-BR-3 = system: SK-BR-3
Procedure: as §1

Row | SMILES | normalised response (BT-474) [%] | normalised response (BT-549) [%] | normalised response (CAL-120) [%] | normalised response (CAL-148) [%] | normalised response (CAL-51) [%] | normalised response (CAL-85-1) [%] | normalised response (DU-4475) [%] | normalised response (HCC1143) [%] | normalised response (HCC1599) [%] | normalised response (HCC1937) [%] | normalised response (HDQ-P1) [%] | normalised response (Hs578T) [%] | normalised response (MCF-10A) [%] | normalised response (MDA-MB-231) [%] | normalised response (MDA-MB-436) [%] | normalised response (MDA-MB-453) [%] | normalised response (MDA-MB-468) [%] | normalised response (MFM-223) [%] | normalised response (SK-BR-3) [%]
1 | N#CC[C@H](C1CCCC1)n1cc(-c2ncnc3[nH]ccc23)cn1 [Ruxolitinib] (10000 nM) | 81.8 | 101 | 77.7 | 98.2 | 88.9 | 98.5 | 98.4 | 93.3 | 94.4 | 96.9 | 86.3 | 102 | 72.5 | 86 | 88.4 | 87.6 | 88.7 | 73.2 | 91.5
2 | C=CC[C@@H]1/C=C(\C)C[C@H](C)C[C@H](OC)[C@H]2O[C@@](O)(C(=O)C(=O)N3CCCC[C@H]3C(=O)O[C@H](/C(C)=C/[C@@H]3CC[C@@H](O)[C@H](OC)C3)[C@H](C)[C@@H](O)CC1=O)[C@H](C)C[C@@H]2OC [Tacrolimus] (10000 nM) | 88.5 | 90.8 | 105 | 103 | 104 | 99.6 | 103 | 86.8 | 119 | 94.3 | 103 | 94.5 | 103 | 91.5 | 98 | 101 | 85.4 | 81.2 | 89.3
3 | CS(=O)(=O)c1ccc(C(=O)Nc2ccc(Cl)c(-c3ccccn3)c2)c(Cl)c1 [Vismodegib] (10000 nM) | 90.4 | 102 | 99.3 | 86.5 | 97.8 | 103 | 97.8 | 89.9 | 88.8 | 90 | 91.7 | 99.5 | 93.9 | 98 | 96.8 | 87.9 | 97.2 | 91.4 | 87.3
4 | COc1cccc2cc(-c3nc([C@H]4CC[C@H](C(=O)O)CC4)n4ncnc(N)c34)[nH]c12 [OSI-027] (10000 nM) | 51.8 | 24.8 | 30.1 | 39.2 | 38 | 30.1 | 61.2 | 46.5 | 74.2 | 47.6 | 37.5 | 33.4 | 30.5 | 45.7 | 45.6 | 32.2 | 33.4 | 28.5 | 22.9
5 | CN(C)C/C=C/C(=O)Nc1cc2c(Nc3ccc(F)c(Cl)c3)ncnc2cc1O[C@H]1CCOC1 [Afatinib] (1000 nM) | 80.2 | 89.1 | 93.5 | 78.6 | 96.4 | 61.7 | 100 | 97.2 | 108 | 89.8 | 64.3 | 94.5 | 35.1 | 83.4 | 98 | 63.3 | 66.8 | 93 | 24.8
6 | S=c1[nH]cnc2nc[nH]c12 [Mercaptopurine] (10000 nM) | 31.6 | 94.8 | 27.3 | 85.5 | 80.5 | 79.3 | 56.5 | 101 | 27.5 | 31.8 | 35.9 | 47.3 | 95.3 | 40.7 | 85.8 | 102 | 96.8 | 85.5 | 85.8
7 | COc1cccc2c1C(=O)c1c(O)c3c(c(O)c1C2=O)C[C@@](O)(C(=O)CO)C[C@@H]3O[C@H]1C[C@H](N)[C@H](O)[C@H](C)O1 [Doxorubicin] (1000 nM) | 22.1 | 14.9 | 43.4 | 1.22 | 23.7 | 17.7 | 0.14 | 46.2 | 33.2 | 51.4 | 46.7 | 45.6 | 44 | 29 | 28.6 | 20.7 | 7.26 | 72.6 | 8.83
8 | CO[C@H]1C[C@@H]2CC[C@@H](C)[C@@](O)(O2)C(=O)C(=O)N2CCCC[C@H]2C(=O)O[C@H]([C@H](C)C[C@@H]2CC[C@@H](OC(=O)C(C)(CO)CO)[C@H](OC)C2)CC(=O)[C@H](C)/C=C(\C)[C@@H](O)[C@@H](OC)C(=O)[C@H](C)C[C@H](C)/C=C/C=C/C=C/1C [Temsirolimus] (100 nM) | 84.3 | 56.3 | 65.4 | 58.1 | 61 | 60.5 | 73.6 | 65.2 | 90.8 | 66.8 | 77.9 | 67.1 | 88.6 | 90.2 | 83 | 58.9 | 56.9 | 67.7 | 53
9 | C[C@]1(c2nc3c(C(N)=O)cccc3[nH]2)CCCN1 [Veliparib] (10000 nM) | 82.1 | 95.7 | 93.1 | 99.2 | 96.1 | 104 | 96.8 | 91.6 | 77.1 | 93.6 | 102 | 98.9 | 97.3 | 93.3 | 94.5 | 121 | 75.5 | 97.3 | 90.9
10 | CN1CCC(COc2cnc(-c3cccc(Cn4nc(-c5cccc(C#N)c5)ccc4=O)c3)nc2)CC1 (1000 nM) | 93.3 | 91.9 | 96.1 | 94.5 | 110 | 99.8 | 101 | 97.8 | 85.6 | 84 | 99.6 | 95.2 | 89.3 | 104 | 84.4 | 84 | 90.3 | 84.9 | 81
11 | CN1CC[C@H](c2c(O)cc(O)c3c(=O)cc(-c4ccccc4Cl)oc23)[C@H](O)C1 [Alvocidib] (10000 nM) | 21.7 | 5.51 | 37 | 58.3 | 15.7 | 7.8 | 8.12 | 17 | 13.9 | 26.2 | 26.2 | 7.68 | 7.83 | 3.28 | 20.1 | 18.1 | 5.01 | 10 | 1.32
12 | OC[C@H]1O[C@@H](n2cnc3c2N=CNC[C@H]3O)C[C@@H]1O [Pentostatin] (10000 nM) | 88.9 | 92.5 | 101 | 105 | 90.2 | 99.2 | 99.8 | 99.1 | 108 | 98.9 | 98.1 | 98 | 106 | 103 | 96.8 | 110 | 103 | 99.3 | 104
13 | Nc1ccn([C@@H]2O[C@H](CO)[C@@H](O)[C@@H]2O)c(=O)n1 [Cytarabine] (10000 nM) | 87.2 | 56.6 | 88.1 | 40.2 | 25.4 | 69.3 | 69.6 | 55.9 | 69.8 | 76.5 | 77.4 | 77.9 | 71.3 | 79.6 | 38.7 | 76.4 | 62.9 | 106 | 43
14 | Cc1c2oc3c(C)ccc(C(=O)N[C@@H]4C(=O)N[C@H](C(C)C)C(=O)N5CCC[C@H]5C(=O)N(C)CC(=O)N(C)[C@@H](C(C)C)C(=O)O[C@@H]4C)c3nc-2c(C(=O)N[C@@H]2C(=O)N[C@H](C(C)C)C(=O)N3CCC[C@H]3C(=O)N(C)CC(=O)N(C)[C@@H](C(C)C)C(=O)O[C@@H]2C)c(N)c1=O [Dactinomycin] (1000 nM) | 12.8 | 1.88 | 33.1 | 52 | 9.31 | 5.09 | 3.22 | 11.3 | 7.78 | 25.2 | 24.8 | 3.61 | 2.65 | 2.02 | 17.1 | 16.7 | 4.19 | 11.9 | 1.39
15 | Nc1nc(Cl)nc2c1ncn2[C@H]1C[C@H](O)[C@@H](CO)O1 [Cladribine] (1000 nM) | 74.8 | 39.6 | 79 | 93.6 | 124 | 75.5 | 92.9 | 92 | 61.2 | 82.8 | 89.2 | 102 | 102 | 88.4 | 77.3 | 126 | 87.9 | 109 | 74.1
16 | Cc1ccc(F)c(NC(=O)Nc2ccc(-c3cccc4[nH]nc(N)c34)cc2)c1 [Linifanib] (1000 nM) | 101 | 103 | 109 | 118 | 91.6 | 101 | 106 | 108 | 105 | 103 | 115 | 101 | 106 | 109 | 111 | 110 | 108 | 108 | 108
17 | C=CCNC1=C2C[C@@H](C)C[C@H](OC)[C@H](O)[C@@H](C)/C=C(\C)[C@H](OC(N)=O)[C@@H](OC)/C=C\C=C(/C)C(=O)NC(=CC1=O)C2=O [Tanespimycin] (10000 nM) | 22.3 | 35.5 | 42.3 | 25 | 14.9 | 21.2 | -0.09 | 32.6 | 54.5 | 34 | 20.7 | 34.2 | 14 | 15.5 | 41.8 | 28.6 | 25.5 | 38.1 | 37.1
18 | CC[C@]1(O)C[C@@H]2CN(CCc3c([nH]c4ccccc34)[C@@](C(=O)OC)(c3cc4c(cc3OC)N(C)[C@H]3[C@@](O)(C(=O)OC)[C@H](OC(C)=O)[C@]5(CC)C=CCN6CC[C@]43[C@@H]65)C2)C1 [Vinblastine] (1000 nM) | 46.8 | 34.3 | 59.1 | 55.3 | 23.9 | 50.3 | 37.8 | 50.2 | 12.6 | 69.3 | 70.6 | 15.3 | 71.6 | 43.4 | 22.6 | 64.7 | 33.9 | 44.6 | 17.6
